Measured values taken from paper PMC11243693, “Synthesis and Biological Evaluation of New Compounds with Nitroimidazole Moiety” (Molecules, 2024).
Converted amounts (≈) assume the structure as drawn.

Experiments:
[1] = tested on: Candida parapsilosis ATCC 22019; assay: Broth microdilution, C. parapsilosis ATCC 22019; format: cell-based; settings: Cp 22019
Procedure, shortened: (§1)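 EUCAST broth microdilution: inoculum 0.5 McFarland, 10-fold diluted; Mueller-Hinton broth (bacteria) or MH + 2% glucose (yeast); twofold dilutions from 1000 µg/mL; 18 ± 2 h at 35 ± 2 °C, A570 read for MIC. MBC/MFC from subculture on MHA or MHA + 2% glc (99.9% kill).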

Candida auris CDC B11903 = assay: Broth microdilution, C. auris CDC B11903; format: cell-based; settings: Ca B11903
Procedure, shortened: as §1

[2] = tested on: Staphylococcus epidermidis ATCC 12228; assay: Broth microdilution, S. epidermidis ATCC 12228; format: cell-based; settings: Se 12228
Procedure, shortened: (§2)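 MIC: A570 after 18 ± 2 h, 35 ± 2 °C. Medium: MH broth (bacterium) or MH + 2% glucose (yeasts). Serial 2-fold dilutions of compound, top solution 1000 µg/mL. Inoculum: 0.5 McFarland suspension diluted 10×. MBC/MFC: subculture onto MHA or MHA + 2% glc, 99.9% growth inhibition.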

[3] = tested on: Candida krusei ATCC 14243; assay: Broth microdilution, C. krusei ATCC 14243; format: cell-based; settings: Ck 14243
Procedure, shortened: as §1

[4] = tested on: Candida glabrata ATCC 90030; assay: Broth microdilution, C. glabrata ATCC 90030; format: cell-based; settings: Cg 90030
Procedure, shortened: as §1

[5] = tested on: Micrococcus luteus ATCC 10240; assay: Broth microdilution, M. luteus ATCC 10240; format: cell-based; settings: Ml 10240
Procedure, shortened: as §2

[6] = tested on: Bacillus cereus ATCC 10876; assay: Broth microdilution, B. cereus ATCC 10876; format: cell-based; settings: Bc 10876
Procedure, shortened: as §1

[7] = tested on: Candida glabrata ATCC 15126; assay: Broth microdilution, C. glabrata ATCC 15126; format: cell-based; settings: Cg 15126
Procedure, shortened: as §1

[8] = tested on: Candida lusitaniae ATCC 3449; assay: Broth microdilution, C. lusitaniae ATCC 3449; format: cell-based; settings: Cl 3449
Procedure, shortened: as §1

[9] = tested on: Bacillus subtilis ATCC 6633; assay: Broth microdilution, B. subtilis ATCC 6633; format: cell-based; settings: Bs 6633
Procedure, shortened: as §2

[10] = tested on: Staphylococcus aureus ATCC 25923; assay: Broth microdilution, S. aureus ATCC 25923; format: cell-based; settings: Sa 25923
Procedure, shortened: as §2

Gram-positive bacteria = assay: Broth microdilution, Gram-positive bacteria; format: cell-based; settings: strains as named in the sentence
Method: The antibacterial activity of the obtained thiosemicarbazides and hydrazide–hydrazones was determined by evaluating their ability to inhibit microbial growth in vitro using the broth microdilution method, according to the guidelines of the European Committee on Antimicrobial Susceptibility Testing (EUCAST). The method involved the preparation of microbial suspensions with a standardized density of 0.5 on the McFarland scale (equivalent to 1.5 × 10^8 colony-forming units/mL for bacteria and […] for fungi). A solution of the test substances was then prepared (initial concentration 1000 µg/mL, diluted in sterile Mueller-Hinton broth for bacteria or Mueller-Hinton with 2% glucose for fungi). The test was carried out in 96-well polystyrene flat-bottom plates (Medlab, Poland) with 100 µL of appropriate sterile microbiological medium in each well. […] After incubation, the spectrophotometric absorbance at 570 nm in each well of the plate was read. […] The MBC value was determined by adding 5 µL of the contents of each well of the plate to solid sterile MHA or MHA + 2%glc medium for bacteria and fungi, respectively. […] In addition, the quotient MBC(MFC)/MIC could be determined to assess the nature of the activity of the test substance. […]

[11] = tested on: Staphylococcus aureus ATCC 6538; assay: Broth microdilution, S. aureus ATCC 6538; format: cell-based; settings: Sa 6538
Procedure, shortened: as §1

Candida spp. = assay: Broth microdilution, Candida spp.; format: cell-based; settings: range over both strains and the listed compounds
Method: The antibacterial activity of the obtained thiosemicarbazides and hydrazide–hydrazones was determined by evaluating their ability to inhibit microbial growth in vitro using the broth microdilution method, according to the guidelines of the European Committee on Antimicrobial Susceptibility Testing (EUCAST). The method involved the preparation of microbial suspensions with a standardized density of 0.5 on the McFarland scale (equivalent to 1.5 × 10^8 colony-forming units/mL for bacteria and […] for fungi). A solution of the test substances was then prepared (initial concentration 1000 µg/mL, diluted in sterile Mueller-Hinton broth for bacteria or Mueller-Hinton with 2% glucose for fungi). The test was carried out in 96-well polystyrene flat-bottom plates (Medlab, Poland) with 100 µL of appropriate sterile microbiological medium in each well. The first wells were filled with 200 µL of the test substance, diluted to the initial concentration, and then double-decreasing dilutions were made under aseptic conditions using an automatic pipette. The final step was the addition of a 10-fold diluted microbial suspension of 2 µL. At the same time, the following controls were included: (a) medium control (100 µL of sterile medium without microorganisms added), (b) microbial viability control, (c) test substance control (dilutions without added micro-organisms), (d) positive control of the drug used in the clinic. The plates thus prepared were incubated for 18 ± 2 h at 35 ± 2 °C under conditions optimal for the growth of the test microorganisms. After incubation, the spectrophotometric absorbance at 570 nm in each well of the plate was read. The aim of this part of the study was to determine two parameters: the minimum inhibitory concentration (MIC) and the minimum bactericidal or fungicidal concentration (MBC/MFC) of the test compound. […] The MBC value was determined by adding 5 µL of the contents of each well of the plate to solid sterile MHA or MHA + 2%glc medium for bacteria and fungi, respectively. The area on the plate where 99.9% inhibition of microbial growth was observed indicated the lethal concentration. In addition, the quotient MBC(MFC)/MIC could be determined to assess the nature of the activity of the test substance. If MBC(MFC)/MIC was <4, the test substance was bactericidal/fungicidal, whereas if MBC(MFC)/MIC was ≥4, it was bacteriostatic/fungistatic. Amoxicillin (Glentham Life Sciences, USA) and nystatin (Glentham Life Sciences, USA) were used as the controls for this assay.
The test was performed either on bacteria, comprising: Gram-positive (Staphylococcus aureus ATCC 25923, Staphylococcus aureus ATCC 6538, Staphylococcus aureus ATCC 43300 methicillin-resistant MRSA, Staphylococcus epidermidis ATCC 12228, Micrococcus luteus ATCC 10240, Bacillus subtilis ATCC 6633, Bacillus cereus ATCC 10876) and Gram-negative (Escherichia coli ATCC 25922, Pseudomonas aeruginosa ATCC 27853, Proteus mirabilis ATCC 12453, Klebsiella pneumoniae ATCC 13883) or yeast (Candida parapsilosis ATCC 22019, Candida glabrata ATCC 90030, Candida krusei ATCC 14243, Candida glabrata ATCC 15126, Candida tropicalis ATCC 1369, Candida auris CDC B11903, Candida lusitaniae ATCC 3449) reference strains from the American Type Culture Collection (ATCC) or the Centers for Disease Control and Prevention (CDC).

[12] = tested on: Staphylococcus aureus ATCC 43300 methicillin-resistant MRSA; assay: Broth microdilution, S. aureus ATCC 43300 MRSA; format: cell-based; settings: Sa 43300 MRSA
Procedure, shortened: as §2

[13] = tested on: Candida tropicalis ATCC 1369; assay: Broth microdilution, C. tropicalis ATCC 1369; format: cell-based; settings: Ct 1369
Procedure, shortened: as §1

[14] = tested on: normal and cancer cell lines; assay: MTT assay, normal and cancer cell lines; format: cell-based, human; settings: in words, 1 to 100 µM, 24 h
Method: Colon cancer (SW480), breast adenocarcinoma (MDA-MB-231), lung carcinoma (A-549), prostate cancer (PC3), and immortal keratinocyte (HaCaT) cell lines of human origin were acquired from the American Type Culture Collection (ATCC). The recommended culture media and protocols provided by ATCC were as follows: SW480 were cultured in Minimum Essential Medium (MEM), MDA-MB-231, A-549, and HaCaT cells were cultured in Dulbecco’s Modified Eagle Medium (DMEM), while PC3 was cultured in Roswell Park Memorial Institute Medium (RPMI). The culture media were supplemented with 10% fetal bovine serum (FBS), penicillin (100 U/mL), and streptomycin (100 μg/mL). Cells were maintained in a humidified incubator at 37 °C with 5% CO2. Passaging was carried out upon reaching 80–90% confluence using 0.25% trypsin (Gibco Life Technologies, New York, NY, USA) treatment prior to experimentation.
Cell viability was assessed utilizing the MTT assay, which relies on the conversion of 3-(4,5-dimethylthiazol-2-yl)-2,5-diphenyltetrazolium bromide salt (MTT) to formazan crystals by mitochondrial dehydrogenases in viable cells. […] The absorbance of the resulting solution was measured at 570 nm using a UVM 340 reader (ASYS Hitech GmbH, Seekirchen am Wallersee, Austria). IC50 values were determined using GraphPad software (GraphPad Prism 8 Software).

[15] = <4 bactericidal, ≥4 bacteriostatic

Work on `Cn1cc([N+](=O)[O-])nc1C(=O)NNC(=S)Nc1ccc(C(F)(F)F)cc1` [Compound 14] yielded an MIC [1] greater than 1000 µg/mL, an MIC (Candida auris CDC B11903) greater than 1000 µg/mL and an MBC [2] of 500 µg/mL (≈ 1290 µM). For the same molecule, the MIC [2] was 31.25 µg/mL (≈ 80.5 µM), the “MBC/MIC Ratio” value [2, 15] was 16 and the MIC [3] was greater than 1000 µg/mL. The MIC [4] was greater than 1000 µg/mL, the MBC [5] was 500 µg/mL (≈ 1290 µM) and the MIC [5] was 62.5 µg/mL (≈ 161 µM). For the same molecule, the “MBC/MIC Ratio” value [5, 15] was 8, the MBC [6] was 250 µg/mL (≈ 644 µM) and the MIC [6] was 31.25 µg/mL (≈ 80.5 µM). For the same molecule, the “MBC/MIC Ratio” value [6, 15] was 8, the MIC [7] was greater than 1000 µg/mL and the MIC [8] was greater than 1000 µg/mL. The MBC [9] was 31.25 µg/mL (≈ 80.5 µM), the MIC [9] was 31.25 µg/mL (≈ 80.5 µM) and the “MBC/MIC Ratio” value [9, 15] was 1. For the same molecule, the MBC [10] was greater than 1000 µg/mL, the MIC [10] was 31.25 µg/mL (≈ 80.5 µM) and the “MIC (range or value for several Gram-positive strains)” value (Gram-positive bacteria) was 31.25 to 62.5 µg/mL. The MBC [11] was 1000 µg/mL (≈ 2580 µM), the MIC [11] was 62.5 µg/mL (≈ 161 µM) and the “MBC (range, C. parapsilosis ATCC 22019 and C. tropicalis ATCC 1369)” value (Candida spp.) was 500 to 1000 µg/mL. The “MIC (range, C. parapsilosis ATCC 22019 and C. tropicalis ATCC 1369)” value (Candida spp.) was 62.5 to 1000 µg/mL, the MBC [12] was 500 µg/mL (≈ 1290 µM) and the MIC [12] was 62.5 µg/mL (≈ 161 µM). The MFC [13] was 500 µg/mL (≈ 1290 µM), the MIC [13] was 500 µg/mL (≈ 1290 µM) and the “MFC/MIC Ratio” value ([13]; <4 fungicidal, ≥4 fungistatic) was 1.

In the case of `COc1cc(C=NNC(=O)c2nc([N+](=O)[O-])cn2C)ccc1O` [Compound 32, N’-[(4-hydroxy-3-methoxyphenyl)methylidene]-1-methyl-4-nitro-1H-imidazole-2-carbohydrazide], the “cytotoxic potential on normal and cancer cell lines” value [14] was “did not show cytotoxic activity” and the melting point was 241 to 243 °C.

For `COc1cc(O)ccc1C=NNC(=O)c1nc([N+](=O)[O-])cn1C` [Compound 33, N’-[(4-hydroxy-2-methoxyphenyl)methylidene]-1-methyl-4-nitro-1H-imidazole-2-carbohydrazide], the “cytotoxic potential on normal and cancer cell lines” value [14] was “did not show cytotoxic activity” and the melting point was 233 to 235 °C.
